Laboratory results from EP0013144A1, “Substituted diphenylamine derivatives, compositions and herbicidal uses thereof, and processes for their preparation” (ICI AUSTRALIA LIMITED, priority 1978, dated 1980).

How the values were obtained:
Assay type in all cases: in vivo
Rape = experiment: Post-emergence herbicidal test, young pot plants (Example 33); details: 2.0 kg/ha, after 14 days
Procedure, shortened: (§1)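 Seeds for the pre-emergence test were sown in a shallow slit in fibre-tray soil; the levelled surface was sprayed and thinly covered with fresh soil, with damage rated after 21 days. Young pot plants were sprayed for the post-emergence test and rated after 14 days, on a 0–5 scale where 5 = complete kill.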

Polygonum aviculare [1] = experiment: as above; details: 2.0 kg/ha, after 14 days
Procedure, shortened: as §1

Ryegrass = experiment: Pre-emergence herbicidal activity (Example 31); set-up: key: 0-3 scale: 0 = 0-25% damage, 3 = 75-99% kill, 3+ = 100% kill; details: after three weeks
Procedure, shortened: (§2)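 Glasshouse test: sown seed boxes sprayed pre-emergence with diluted formulation, unsprayed boxes as reference. Visual damage scored 0–3+ after 3 weeks.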

Rice [2] = experiment: Post-emergence herbicidal test, young pot plants (Example 33); set-up: key: 0 is 0 to 20% damage; 5 is complete kill; details: after 14 days
Protocol: (§3) The compounds were formulated for test by mixing an appropriate amount with 5 ml of an emulsion prepared by diluting 160 ml of a solution containing 21.S g per litre of "Span" 80 and 78.2 g per litre of "Tween" 20 in methylcyclohexanone to 500 ml with water. "Span" 80 is a Trade Mark for a surface-active agent comprising sorbitan monolaurate. "Tween" 20 is a Trade Mark for a surface-active agent comprising a condensate of sorbitan monolaurate with 20 molar proportions of ethylene oxide. Each 5 ml emulsion containing a test compound was'then diluted to 40 ml with water and sprayed on to young pot plants (post-emergence test) of the species named in Table 5 below. Damage to test plants was assessed after 14 days on a scale of 0 to 5 where 0 is 0 to 20% damage and 5 is complete kill. In a test for pre-emergence herbicidal activity, seeds of the test plants were sown in a shallow slit formed in the surface of soil in fibre trays. The surface was then levelled and sprayed, and fresh soil then spread thinly over the sprayed surface. Assessment of herbicidal damage was carried out after 21 days using the same scale of 0 to 5 as the post-emergence test. In both cases the degree of herbicidal damage was assessed by comparison with untreated control plants. A dash (-) means that no experiment was carried out.

Maize = experiment: as above; set-up: key: 0 is 0 to 20% damage; 5 is complete kill; details: after 14 days
Protocol: as §3

Rice [3] = experiment: Pre-emergence herbicidal test, fibre trays (Example 33); set-up: key: 0 is 0 to 20% damage; 5 is complete kill; details: after 21 days
Protocol: as §3

Wheat [4] = experiment: Post-emergence herbicidal activity (Example 32); set-up: key: 0-3 scale: 0 = 0-25% damage, 3 = 75-99% kill, 3+ = 100% kill; details: 3 weeks after spraying
Procedure, shortened: (§4)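 Compounds applied as diluted emulsifiable concentrates (toluene with nonylphenol ethoxylate/calcium dodecylbenzene sulfonate) or ball-milled aqueous suspensions, sprayed onto glasshouse plants about 10–12.5 cm tall. Damage assessed visually 3 weeks later versus untreated controls on a 0–3 scale (0 = 0–25% damage, 3 = 75–99% kill, 3+ = 100% kill).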

Amaranthus retroflexus = experiment: Pre-emergence herbicidal test, fibre trays (Example 33); details: after 21 days
Procedure, shortened: as §1

Chenopodium album = experiment: as above; details: 2.0 kg/ha, after 21 days
Procedure, shortened: as §1

Polygonum aviculare [5] = experiment: as above; details: after 21 days
Procedure, shortened: as §1

Wild Oats [6] = experiment: Post-emergence herbicidal activity (Example 32); details: 3 weeks after spraying
Procedure, shortened: as §4

Ipomea = experiment: Post-emergence herbicidal activity (Example 32); details: 3 weeks after spraying
Procedure, shortened: as §4

Senecio vulgaris = experiment: Post-emergence herbicidal test, young pot plants (Example 33); details: after 14 days
Procedure, shortened: as §1

Wheat [7] = experiment: Pre-emergence herbicidal activity (Example 31); set-up: key: 0-3 scale: 0 = 0-25% damage, 3 = 75-99% kill, 3+ = 100% kill; details: after three weeks
Procedure, shortened: as §2

Wild Oats [8] = experiment: Pre-emergence herbicidal activity (Example 31); details: after three weeks
Procedure, shortened: as §2

Row | SMILES | damage to test plants, Rp (Rape) | damage to test plants, Pi (Polygonum aviculare [1]) | damage to plants, Rg (Ryegrass; 1 kg/ha) | damage to plants, Rg (Ryegrass; 5 kg/ha) | damage to test plants, Rc (Rice [2]; 2.0 kg/ha) | damage to test plants, Mz (Maize; 2.0 kg/ha) | herbicidal damage, Rc (Rice [3]; 2.0 kg/ha) | damage to plants, Wh (Wheat [4]; 1 kg/ha) | damage to plants, Wh (Wheat [4]; 5 kg/ha) | herbicidal damage, Am (Amaranthus retroflexus; 2.0 kg/ha) | herbicidal damage, Ca (Chenopodium album) | herbicidal damage, Pi (Polygonum aviculare [5]; 2.0 kg/ha) | damage to plants, Ip (Ipomea; 1 kg/ha) | damage to plants, Ip (Ipomea; 5 kg/ha) | damage to test plants, Sn (Senecio vulgaris; 2.0 kg/ha) | damage to plants, Wh (Wheat [7]; 1 kg/ha) | damage to plants, Wh (Wheat [7]; 5 kg/ha) | damage to plants, Ot (Wild Oats [8]; 1 kg/ha) | damage to plants, Ot (Wild Oats [8]; 5 kg/ha) | other results
1 | C#CCN(c1ccc(OC(C)C(=O)OC)cc1)c1ccc(C(F)(F)F)cc1[N+](=O)[O-] (stereo not shown) [Compound 81] | 0 (0 is 0 to 20% damage) | 0 (0 is 0 to 20% damage) | 3 (3 represents 75 to 99% kill) | 3+ (3+ represents 100% kill) | 4 | 4 | 4 | 2 | 3 (3 represents 75 to 99% kill) | 0 (0 is 0 to 20% damage) | 0 (0 is 0 to 20% damage) | 0 (0 is 0 to 20% damage) | 0 (0 represents 0 to 25% damage) | 0 (0 represents 0 to 25% damage) |  |  |  |  |  | damage to plants, Ot (Wild Oats [6]; 1 kg/ha): 3+ (3+ represents 100% kill); damage to plants, Ot (Wild Oats [6]; 5 kg/ha): 3+ (3+ represents 100% kill)
2 | COC(=O)C(C)Oc1ccc(N(C)c2ccc(Br)cc2[N+](=O)[O-])cc1 (stereo not shown) [Compound 30] | 1 | 0 (0 is 0 to 20% damage) | 1 | 3+ (3+ represents 100% kill) | 4 | 5 | 5 | 2 | 3+ (3+ represents 100% kill) | 1 | 0 (0 is 0 to 20% damage) | 0 (0 is 0 to 20% damage) | 0 (0 represents 0 to 25% damage) | 0 (0 represents 0 to 25% damage) | 2 | 0 (0 represents from 0 to 25% damage) | 0 (0 represents from 0 to 25% damage) | 1 | 3 (3 represents 75 to 99% kill) | 
3 | COC(=O)C(C)Oc1ccc(Nc2ccc(Br)cc2[N+](=O)[O-])cc1 (stereo not shown) [Compound 29] | 1 | 0 (0 is 0 to 20% damage) | 2 | 3 (3 represents 75 to 99% kill) | 5 | 5 | 3 | 2 | 3+ (3+ represents 100% kill) | 0 (0 is 0 to 20% damage) | 0 (0 is 0 to 20% damage) | 0 (0 is 0 to 20% damage) | 0 (0 represents 0 to 25% damage) | 0 (0 represents 0 to 25% damage) | 4 | 1 | 1 | 1 | 3+ (3+ represents 100% kill) | 
4 | COC(=O)C(C)Oc1ccc(N(C)c2ccc(Cl)cc2[N+](=O)[O-])cc1 (stereo not shown) [Compound 27] | 0 (0 is 0 to 20% damage) | 0 (0 is 0 to 20% damage) | 1 | 3 (3 represents 75 to 99% kill) | 4 | 5 | 5 | 2 | 3+ (3+ represents 100% kill) | 0 (0 is 0 to 20% damage) | 0 (0 is 0 to 20% damage) | 0 (0 is 0 to 20% damage) | 0 (0 represents 0 to 25% damage) | 0 (0 represents 0 to 25% damage) | 1 | 0 (0 represents from 0 to 25% damage) | 1 |  |  | 
5 | COC(=O)C(C)Oc1ccc(Nc2ccc(Cl)cc2[N+](=O)[O-])cc1 (stereo not shown) [Compound 28] |  |  | 3 (3 represents 75 to 99% kill) | 3+ (3+ represents 100% kill) |  |  |  | 3 (3 represents 75 to 99% kill) | 3+ (3+ represents 100% kill) |  |  |  | 0 (0 represents 0 to 25% damage) | 0 (0 represents 0 to 25% damage) |  | 0 (0 represents from 0 to 25% damage) | 2 | 2 | 3+ (3+ represents 100% kill) | damage to test plants, Sn (Senecio vulgaris; 1.0 kg/ha): 0 (0 is 0 to 20% damage); damage to test plants, Rc (Rice [2]; 1.0 kg/ha): 4; damage to test plants, Mz (Maize; 1.0 kg/ha): 5; herbicidal damage, Rc (Rice [3]; 1.0 kg/ha): 1; herbicidal damage, Am (Amaranthus retroflexus; 1.0 kg/ha): 0 (0 is 0 to 20% damage); herbicidal damage, Pi (Polygonum aviculare [5]; 1.0 kg/ha): 0 (0 is 0 to 20% damage)
6 | COC(=O)C(C)Oc1ccc(N(C)c2ccc(Cl)cc2Cl)cc1 (stereo not shown) [Compound 1, Methyl 2-[4-(2,4-dichloro-N-methylanilino)phenoxy]-propionate] | 2 | 0 (0 is 0 to 20% damage) | 1 | 3 (3 represents 75 to 99% kill) | 0 (0 is 0 to 20% damage) | 5 | 0 (0 is 0 to 20% damage) | 0 (0 represents 0 to 25% damage) | 1 |  |  |  | 0 (0 represents 0 to 25% damage) | 0 (0 represents 0 to 25% damage) | 1 | 0 (0 represents from 0 to 25% damage) | 0 (0 represents from 0 to 25% damage) | 0 (0 represents from 0 to 25% damage) | 0 (0 represents from 0 to 25% damage) | 
